Test results taken from patent US20090280172A1, “GALENIC FORMULATIONS OF ORGANIC COMPOUNDS” (priority 2006, published 2009).

Test: Bioavailability of transmucosal dosage forms of aliskiren compared with oral formulations
Assay type: in vivo
Settings: transmucosal route vs oral formulation e.g. as employed in WO2005/089729

In the case of `COCCCOc1cc(C[C@@H](C[C@H](N)[C@@H](O)C[C@H](C(=O)NCC(C)(C)C(N)=O)C(C)C)C(C)C)ccc1OC` [aliskiren, 2(S),4(S),5(S),7(S)-N-(3-amino-2,2-dimethyl-3-oxopropyl)-2,7-di(1-methylethyl)-4-hydroxy-5-amino-8-[4-methoxy-3-(3-methoxy-propoxy)phenyl]-octanamide], the “increase of bioavailability over the bioavailability of an oral formulation” value was “at least three times”.
